Species: Rattus norvegicus
Assay: DrugMatrix - Regimen: Daily Repeat
Assay type: toxicity, organism-based, Sprague-Dawley
Set-up: regimen Daily Repeat, gender Male, age 6-8 weeks
Conditions: in vivo, po, route oral GAVAGE, […]; for ABSOLUTE BASOPHIL / ABSOLUTE EOSINOPHIL / ABSOLUTE LYMPHOCYTE / ABSOLUTE MONOCYTE / ABSOLUTE SEGMENTED NEUTROPHIL / BASOPHIL / EOSINOPHIL / ERYTHROCYTE COUNT / HEMATOCRIT / LEUKOCYTE COUNT / LYMPHOCYTE / MEAN CORPUSCULAR HEMOGLOBIN / MEAN CORPUSCULAR HEMOGLOBIN CONCENTRATION / MEAN CORPUSCULAR VOLUME / NEUTROPHIL / NUCLEATED RED BLOOD CELLS / PLATELET COUNT / HEMOGLOBIN: tissue Blood; for ALANINE AMINOTRANSFERASE / ALBUMIN / ALKALINE PHOSPHATASE / ASPARTATE AMINOTRANSFERASE / BLOOD UREA NITROGEN / CARBON DIOXIDE / CHLORIDE / CHOLESTEROL / CREATINE PHOSPHOKINASE / CREATININE / LACTATE DEHYDROGENASE / LIPASE / PHOSPHORUS / POTASSIUM / SODIUM / TOTAL BILIRUBIN / URIC ACID: tissue Plasma
[1] = 0 mg/kg, 72 h, dose level Control, time 3 day
[2] = 0 mg/kg, 120 h, dose level Control, time 5 day
[3] = 0 mg/kg, dose level Control, time 28 day
[4] = 10 mg/kg, 72 h, dose level High, time 3 day
[5] = 10 mg/kg, 120 h, dose level High, time 5 day

O=C(O)Cc1ccccc1Nc1c(Cl)cccc1Cl [DICLOFENAC]
ABSOLUTE BASOPHIL [1]: 0 CELLS/uL
ABSOLUTE EOSINOPHIL [1]: 0 CELLS/uL
ABSOLUTE LYMPHOCYTE [1]: 8493 CELLS/uL
ABSOLUTE MONOCYTE [1]: 127 CELLS/uL
ABSOLUTE SEGMENTED NEUTROPHIL [1]: 896.67 CELLS/uL
BASOPHIL [1]: 0%
EOSINOPHIL [1]: 0%
ERYTHROCYTE COUNT [1]: 5.53 x10E6/uL
HEMATOCRIT [1]: 34.07%
LEUKOCYTE COUNT [1]: 9.52 x10E3/uL
LYMPHOCYTE [1]: 89.17%
MEAN CORPUSCULAR HEMOGLOBIN [1]: 24.07 pg
MEAN CORPUSCULAR HEMOGLOBIN CONCENTRATION [1]: 39.03 G/DL
MEAN CORPUSCULAR VOLUME [1]: 61.62 fL
NEUTROPHIL [1]: 9.5%
NUCLEATED RED BLOOD CELLS [1]: 0.17 /100WBC
PLATELET COUNT [1]: 1054.17 x10E3/uL
ALANINE AMINOTRANSFERASE [1]: 77.67 u/L
ALBUMIN [1]: 4.08 G/DL
ALKALINE PHOSPHATASE [1]: 404.5 u/L
ASPARTATE AMINOTRANSFERASE [1]: 83.17 u/L
BLOOD UREA NITROGEN [1]: 14.33 mg/dL
CARBON DIOXIDE [1]: 33.17 mmol/L
CHLORIDE [1]: 101 MEQ/L
CHOLESTEROL [1]: 76.33 mg/dL
CREATINE PHOSPHOKINASE [1]: 184.5 u/L
CREATININE [1]: 0.13 mg/dL
LACTATE DEHYDROGENASE [1]: 130.33 u/L
LIPASE [1]: 11 u/L
PHOSPHORUS [1]: 9.27 mg/dL
POTASSIUM [1]: 6.26 MEQ/L
SODIUM [1]: 143.57 MEQ/L
TOTAL BILIRUBIN [1]: 0.18 mg/dL
URIC ACID [1]: 1.38 mg/dL
ABSOLUTE BASOPHIL [2]: 0 CELLS/uL
ABSOLUTE EOSINOPHIL [2]: 0 CELLS/uL
ABSOLUTE LYMPHOCYTE [2]: 8546.17 CELLS/uL
ABSOLUTE MONOCYTE [2]: 49.5 CELLS/uL
ABSOLUTE SEGMENTED NEUTROPHIL [2]: 554.33 CELLS/uL
NUCLEATED RED BLOOD CELLS [2]: 0.17 /100WBC
CARBON DIOXIDE [2]: 33.17 mmol/L
CREATININE [2]: 0.18 mg/dL
LACTATE DEHYDROGENASE [2]: 111.5 u/L
LIPASE [2]: 9.5 u/L
URIC ACID [2]: 0.78 mg/dL
BASOPHIL [3]: 0.42%
EOSINOPHIL [3]: 0.58%
ERYTHROCYTE COUNT [3]: 8.06 x10E6/uL
HEMATOCRIT [3]: 48.44%
HEMOGLOBIN [3]: 16.34 G/DL
LEUKOCYTE COUNT [3]: 13.04 x10E3/uL
LYMPHOCYTE [3]: 85.12%
MEAN CORPUSCULAR HEMOGLOBIN [3]: 20.26 pg
MEAN CORPUSCULAR HEMOGLOBIN CONCENTRATION [3]: 33.74 G/DL
MEAN CORPUSCULAR VOLUME [3]: 60.1 fL
NEUTROPHIL [3]: 11.28%
PLATELET COUNT [3]: 1226 x10E3/uL
ALANINE AMINOTRANSFERASE [3]: 28.6 u/L
ALBUMIN [3]: 3.94 G/DL
ALKALINE PHOSPHATASE [3]: 254.6 u/L
ASPARTATE AMINOTRANSFERASE [3]: 67.8 u/L
BLOOD UREA NITROGEN [3]: 10.4 mg/dL
CHLORIDE [3]: 104.6 MEQ/L
CHOLESTEROL [3]: 57.6 mg/dL
CREATINE PHOSPHOKINASE [3]: 224.8 u/L
CREATININE [3]: 0.4 mg/dL
PHOSPHORUS [3]: 10.66 mg/dL
POTASSIUM [3]: 6.58 MEQ/L
SODIUM [3]: 148.6 MEQ/L
TOTAL BILIRUBIN [3]: 0.24 mg/dL
ABSOLUTE BASOPHIL [4]: 0 CELLS/uL
ABSOLUTE EOSINOPHIL [4]: 0 CELLS/uL
ABSOLUTE LYMPHOCYTE [4]: 9500.33 CELLS/uL
ABSOLUTE MONOCYTE [4]: 68 CELLS/uL
ABSOLUTE SEGMENTED NEUTROPHIL [4]: 1065 CELLS/uL
BASOPHIL [4]: 0%
EOSINOPHIL [4]: 0%
ERYTHROCYTE COUNT [4]: 5.04 x10E6/uL
HEMATOCRIT [4]: 30.83%
HEMOGLOBIN [4]: 12.23 G/DL
LEUKOCYTE COUNT [4]: 10.63 x10E3/uL
LYMPHOCYTE [4]: 90%
MEAN CORPUSCULAR HEMOGLOBIN [4]: 24.3 pg
MEAN CORPUSCULAR HEMOGLOBIN CONCENTRATION [4]: 39.67 G/DL
MEAN CORPUSCULAR VOLUME [4]: 61.23 fL
NEUTROPHIL [4]: 9%
NUCLEATED RED BLOOD CELLS [4]: 0 /100WBC
PLATELET COUNT [4]: 988.67 x10E3/uL
ALANINE AMINOTRANSFERASE [4]: 55.67 u/L
ALBUMIN [4]: 3.43 G/DL
ALKALINE PHOSPHATASE [4]: 322 u/L
ASPARTATE AMINOTRANSFERASE [4]: 70.67 u/L
BLOOD UREA NITROGEN [4]: 11.67 mg/dL
CARBON DIOXIDE [4]: 33.33 mmol/L
CHLORIDE [4]: 101 MEQ/L
CHOLESTEROL [4]: 79.33 mg/dL
CREATINE PHOSPHOKINASE [4]: 148 u/L
CREATININE [4]: 0.12 mg/dL
LACTATE DEHYDROGENASE [4]: 105 u/L
LIPASE [4]: 9.33 u/L
PHOSPHORUS [4]: 10 mg/dL
POTASSIUM [4]: 6.12 MEQ/L
SODIUM [4]: 145.77 MEQ/L
TOTAL BILIRUBIN [4]: 0.17 mg/dL
URIC ACID [4]: 1.47 mg/dL
ABSOLUTE BASOPHIL [5]: 0 CELLS/uL
ABSOLUTE EOSINOPHIL [5]: 0 CELLS/uL
ABSOLUTE LYMPHOCYTE [5]: 5111.33 CELLS/uL
ABSOLUTE MONOCYTE [5]: 0 CELLS/uL
ABSOLUTE SEGMENTED NEUTROPHIL [5]: 1222 CELLS/uL
BASOPHIL [5]: 0%
EOSINOPHIL [5]: 0%
ERYTHROCYTE COUNT [5]: 4.43 x10E6/uL
HEMATOCRIT [5]: 26.73%
HEMOGLOBIN [5]: 10.7 G/DL
LEUKOCYTE COUNT [5]: 6.33 x10E3/uL
LYMPHOCYTE [5]: 76.67%
MEAN CORPUSCULAR HEMOGLOBIN [5]: 24.2 pg
MEAN CORPUSCULAR HEMOGLOBIN CONCENTRATION [5]: 40.03 G/DL
MEAN CORPUSCULAR VOLUME [5]: 60.47 fL
NEUTROPHIL [5]: 23.33%
NUCLEATED RED BLOOD CELLS [5]: 0.67 /100WBC
PLATELET COUNT [5]: 1253.67 x10E3/uL
ALANINE AMINOTRANSFERASE [5]: 24 u/L
ALBUMIN [5]: 2.23 G/DL
ALKALINE PHOSPHATASE [5]: 221.33 u/L
ASPARTATE AMINOTRANSFERASE [5]: 56 u/L
BLOOD UREA NITROGEN [5]: 17.33 mg/dL
CARBON DIOXIDE [5]: 31.67 mmol/L

— ChEMBL document CHEMBL3885881, “DrugMatrix”
